Data from patent US10323022B2, “Pyrrolidinyl urea, pyrrolidinyl thiourea and pyrrolidinyl guanidine compounds as TrkA kinase inhibitors” (Array BioPharma Inc., priority 2011, dated 2019).

Biological target: TrkA (Homo sapiens (Human), UniProt P04629)
Assay: TrkA Omnia Assay
Type: biochemical
Conditions: averaged IC50; 20 nM enzyme, 500 μM ATP, 10 μM peptide substrate
In short: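 Recombinant TrkA (20 nM) preincubated 10 min at ambient temperature with compound, then Omnia Tyr Peptide #4 (10 μM) and ATP (500 μM) added in 25 mM MOPS pH 7.5, 5 mM MgCl2, 0.005% Triton X-100. Fluorescence (ex 360/em 485 nm) followed continuously for 70 min; IC50 from initial rates by 4- or 5-parameter logistic fit.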

Chain of TrkA (P04629 33-796): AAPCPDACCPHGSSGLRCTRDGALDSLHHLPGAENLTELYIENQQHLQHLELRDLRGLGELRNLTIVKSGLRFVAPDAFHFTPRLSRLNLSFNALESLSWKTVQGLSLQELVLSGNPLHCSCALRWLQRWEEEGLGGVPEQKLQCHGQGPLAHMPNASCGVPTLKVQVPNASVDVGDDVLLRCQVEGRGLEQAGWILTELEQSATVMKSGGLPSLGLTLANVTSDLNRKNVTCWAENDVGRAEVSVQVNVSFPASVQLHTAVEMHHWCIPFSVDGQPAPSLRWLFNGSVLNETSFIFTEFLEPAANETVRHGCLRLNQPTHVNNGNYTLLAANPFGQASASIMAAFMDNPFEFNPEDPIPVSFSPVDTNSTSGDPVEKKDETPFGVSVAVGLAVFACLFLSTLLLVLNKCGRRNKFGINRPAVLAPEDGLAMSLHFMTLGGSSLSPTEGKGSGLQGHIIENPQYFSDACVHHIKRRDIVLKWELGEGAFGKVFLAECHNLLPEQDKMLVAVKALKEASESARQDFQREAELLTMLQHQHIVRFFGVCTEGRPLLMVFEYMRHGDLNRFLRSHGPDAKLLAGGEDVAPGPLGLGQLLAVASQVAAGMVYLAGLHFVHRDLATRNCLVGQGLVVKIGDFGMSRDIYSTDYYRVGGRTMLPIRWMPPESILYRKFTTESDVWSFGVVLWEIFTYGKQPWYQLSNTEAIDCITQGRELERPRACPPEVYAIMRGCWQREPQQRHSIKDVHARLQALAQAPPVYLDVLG

Structure (SMILES) | IC50
COCCN1C[C@@H](NC(=O)Nc2c(C)c([C@H]3C[C@H](O)C3)nn2-c2ccccc2)[C@H](c2ccc(F)cc2)C1 [Example 455, 1-((3S,4R)-4-(4-fluorophenyl)-1-(2-methoxyethyl)pyrrolidin-3-yl)-3-(3-(trans-3-hydroxycyclobutyl)-4-methyl-1-phenyl-1H-pyrazol-5-yl)urea] | < 100 nM
COCCN1C[C@@H](NC(=O)Nc2c(C)c([C@H]3C[C@@H](O)C3)nn2-c2ccccc2)[C@H](c2cc(F)cc(F)c2)C1 [Example 456, 1-((3S,4R)-4-(3,5-difluorophenyl)-1-(2-methoxyethyl)pyrrolidin-3-yl)-3-(3-(cis-3-hydroxycyclobutyl)-4-methyl-1-phenyl-1H-pyrazol-5-yl)urea] | < 100 nM
COCCN1C[C@@H](NC(=O)Nc2c(C)c([C@H]3C[C@H](O)C3)nn2-c2ccccc2)[C@H](c2cc(F)cc(F)c2)C1 [Example 457, 1-((3S,4R)-4-(3,5-difluorophenyl)-1-(2-methoxyethyl)pyrrolidin-3-yl)-3-(3-(trans-3-hydroxycyclobutyl)-4-methyl-1-phenyl-1H-pyrazol-5-yl)urea] | < 100 nM
CCOc1nn(-c2ccccc2)c(NC(=O)N[C@@H]2CN(CCOC)C[C@H]2c2cc(F)cc(F)c2)c1CO [Example 464, 1-((3S,4R)-4-(3,5-difluorophenyl)-1-(2-methoxyethyl)pyrrolidin-3-yl)-3-(3-ethoxy-4-(hydroxymethyl)-1-phenyl-1H-pyrazol-5-yl)urea] | < 100 nM
COCCN1C[C@@H](NC(=O)Nc2c(C)c(-c3cnn(C)c3)nn2-c2ccccc2)[C@H](c2ccc(F)c(Cl)c2)C1 [Example 465, 1-((3S,4R)-4-(3-chloro-4-fluorophenyl)-1-(2-methoxyethyl)pyrrolidin-3-yl)-3-(1′,4-dimethyl-1-phenyl-1H, 1′H-3,4′-bipyrazol-5-yl)urea] | < 100 nM
COCCN1C[C@@H](NC(=O)Nc2c(C)c(-c3cnn(C)c3)nn2-c2ccccc2)[C@H](c2ccc(Cl)c(F)c2)C1 [Example 466, 1-((3S,4R)-4-(4-chloro-3-fluorophenyl)-1-(2-methoxyethyl)pyrrolidin-3-yl)-3-(1′,4-dimethyl-1-phenyl-1H, 1′H-3,4′-bipyrazol-5-yl)urea] | < 100 nM
COCCN1C[C@@H](NC(=O)Nc2c(C)c(-c3cnn(C)c3)nn2-c2ccccc2)[C@H](c2cc(F)cc(Cl)c2)C1 [Example 467, 1-((3S,4R)-4-(3-chloro-5-fluorophenyl)-1-(2-methoxyethyl)pyrrolidin-3-yl)-3-(1′,4-dimethyl-1-phenyl-1H, 1′H-3,4′-bipyrazol-5-yl)urea] | < 100 nM
CCOc1nn(-c2ccccc2)c(NC(=O)N[C@@H]2CN(CC(O)C(F)(F)F)C[C@H]2c2ccc(F)c(F)c2)c1C (stereo partly drawn) [Example 469, 1-((3S,4R)-4-(3,4-difluorophenyl)-1-(3,3,3-trifluoro-2-hydroxypropyl)pyrrolidin-3-yl)-3-(3-ethoxy-4-methyl-1-phenyl-1H-pyrazol-5-yl)urea] | 1000 to 10000 nM
CCOc1nn(-c2ccccc2)c(NC(=O)N[C@@H]2CN(CC(=O)NC)C[C@H]2c2ccc(F)c(F)c2)c1C [Example 472, 2-((3R,4S)-3-(3,4-difluorophenyl)-4-(3-(3-ethoxy-4-methyl-1-phenyl-1H-pyrazol-5-yl)ureido)pyrrolidin-1-yl)-N-methylacetamide] | 100 to 1000 nM
COCCN1C[C@@H](NC(=O)Nc2c(C)c(C)nn2C2CCCCC2)[C@H](c2ccc(F)c(F)c2)C1 [Example 473, 1-(1-cyclohexyl-3,4-dimethyl-1H-pyrazol-5-yl)-3-((3 S,4R)-4-(3,4-difluorophenyl)-1-(2-methoxyethyl)pyrrolidin-3-yl)urea] | < 100 nM
COCCN1C[C@@H](NC(=O)Nc2c(C)c(OCC(F)(F)F)nn2-c2ccccc2)[C@H](c2ccc(F)cc2)C1 [Example 476, 1-((3S,4R)-4-(4-fluorophenyl)-1-(2-methoxyethyl)pyrrolidin-3-yl)-3-(4-methyl-1-phenyl-3-(2,2,2-trifluoroethoxy)-1H-pyrazol-5-yl)urea] | < 100 nM
COCCN1C[C@@H](NC(=O)Nc2c(C)c(OCC(F)(F)F)nn2-c2ccccc2)[C@H](c2cc(F)cc(F)c2)C1 [Example 477, 1-((3S,4R)-4-(3,5-difluorophenyvl)-1-(2-methoxyethyl)pyrrolidin-3-yl)-3-(4-methyl-1-phenyl-3-(2,2,2-trifluoroethoxy)-1H-pyrazol-5-yl)urea] | < 100 nM
COCCN1C[C@@H](NC(=O)Nc2c(Cl)c(-c3ccccn3)nn2-c2ccccc2)[C@H](c2ccc(F)c(F)c2)C1 [Example 480, 1-(4-chloro-1-phenyl-3-(pyridin-2-yl)-1H-pyrazol-5-yl)-3-((3 S,4R)-4-(3,4-difluorophenyl)-1-(2-methoxyethyl)pyrrolidin-3-yl)urea] | < 100 nM
COCCN1C[C@@H](NC(=O)Nc2c(Cl)c(-c3ccncc3)nn2-c2ccccc2)[C@H](c2ccc(F)c(F)c2)C1 [Example 481, 1-(4-chloro-1-phenyl-3-(pyridin-4-yl)-1H-pyrazol-5-yl)-3-((3 S,4R)-4-(3,4-difluorophenyl)-1-(2-methoxyethyl)pyrrolidin-3-yl)urea] | < 100 nM

Next, values leading:

IC50 | Structure (SMILES)
100 to 1000 nM | COCCN1C[C@@H](NC(=O)Nc2c(C)c(C(=O)O)nn2-c2ccccc2)[C@H](c2ccc(F)c(F)c2)C1 [Example 458, 5-(3-((3S,4R)-4-(3,4-difluorophenyl)-1-(2-methoxyethyl)pyrroidin-3-yl)ureido)-4-methyl-1-phenyl-1H-pyrazole-3-carboxylic acid]
< 100 nM | CNC(=O)c1nn(-c2ccccc2)c(NC(=O)N[C@@H]2CN(CCOC)C[C@H]2c2ccc(F)c(F)c2)c1C [Example 459, 5-(3-((3S,4R)-4-(3,4-difluorophenyl)-1-(2-methoxyethyl)pyrrolidin-3-yl)ureido)-N,4-dimethyl-1-phenyl-1H-pyrazole-3-carboxamide]
< 100 nM | COCCN1C[C@@H](NC(=O)Nc2c(C)c(C(=O)N(C)C)nn2-c2ccccc2)[C@H](c2ccc(F)c(F)c2)C1 [Example 460, 5-(3-((3S,4R)-4-(3,4-difluorophenyl)-1-(2-methoxyethyl)pyrrolidin-3-yl)ureido)-N,N,4-trimethyl-1-phenyl-1H-pyrazole-3-carboxamide]
< 100 nM | CCNC(=O)c1nn(-c2ccccc2)c(NC(=O)N[C@@H]2CN(CCOC)C[C@H]2c2ccc(F)c(F)c2)c1C [Example 461, 5-(3-((3S,4R)-4-(3,4-difluorophenyl)-1-(2-methoxyethyl)pyrrolidin-3-yl)ureido)-N-ethyl-4-methyl-1-phenyl-1H-pyrazole-3-carboxamide]
< 100 nM | COCCN1C[C@@H](NC(=O)Nc2c(C)c(C(=O)NC(C)C)nn2-c2ccccc2)[C@H](c2ccc(F)c(F)c2)C1 [Example 462, 5-(3-((3S,4R)-4-(3,4-difluorophenyl)-1-(2-methoxyethyl)pyrrolidin-3-yl)ureido)-N-isopropyl-4-methyl-1-phenyl-1H-pyrazole-3-carboxamide]
< 100 nM | COCCN1C[C@@H](NC(=O)Nc2c(C)c(C(N)=O)nn2-c2ccccc2)[C@H](c2ccc(F)c(F)c2)C1 [Example 463, 5-(3-((3S,4R)-4-(3,4-difluorophenyl)-1-(2-methoxyethyl)pyrrolidin-3-yl)ureido)-4-methyl-1-phenyl-1H-pyrazole-3-carboxamide]
< 100 nM | CCOc1nn(-c2ccccc2)c(NC(=O)N[C@@H]2CN(CC(=O)OC)C[C@H]2c2ccc(F)c(F)c2)c1C [Example 468, methyl 2-((3R,4S)-3-(3,4-difluorophenyl)-4-(3-(3-ethoxy-4-methyl-1-phenyl-1H-pyrazol-5-yl)ureido)pyrrolidin-1-yl)acetate]
100 to 1000 nM | CCOc1nn(-c2ccccc2)c(NC(=O)N[C@@H]2CN(CC(C)O)C[C@H]2c2ccc(F)c(F)c2)c1C (stereo partly drawn) [Example 470, 1-((3S,4R)-4-(3,4-difluorophenyvl)-1-(2-hydroxypropyl)pyrrolidin-3-yl)-3-(3-ethoxy-4-methyl-1-phenyl-1H-pyrazol-5-yl)urea]
100 to 1000 nM | CCOc1nn(-c2ccccc2)c(NC(=O)N[C@@H]2CN(CCC#N)C[C@H]2c2ccc(F)c(F)c2)c1C [Example 471, 1-((3S,4R)-1-(2-cyanoethyl)-4-(3,4-difluorophenyl)pyrrolidin-3-yl)-3-(3-ethoxy-4-methyl-1-phenyl-1H-pyrazol-5-yl)urea]
< 100 nM | COCCN1C[C@@H](NC(=O)Nc2c(C)c(OCC(CO)CO)nn2-c2ccccc2)[C@H](c2ccc(F)c(F)c2)C1 [Example 474, 1-((3S,4R)-4-(3,4-difluorophenyl)-1-(2-methoxyethyl)pyrrolidin-3-yl)-3-(3-(3-hydroxy-2-(hydroxymethyl)propoxy)-4-methyl-1-phenyl-1H-pyrazol-5-yl)urea]
< 100 nM | COCCN1C[C@@H](NC(=O)Nc2c(C)c(OCC(F)(F)F)nn2-c2ccccc2)[C@H](c2ccc(F)c(F)c2)C1 [Example 475, 1-((3S,4R)-4-(3,4-difluorophenyl)-1-(2-methoxyethyl)pyrrolidin-3-yl)-3-(4-methyl-1-phenyl-3-(2,2,2-trifluoroethoxy)-1H-pyrazol-5-yl)urea]
< 100 nM | COCCN1C[C@@H](NC(=O)Nc2c(C)c(OCC(F)F)nn2-c2ccccc2)[C@H](c2ccc(F)c(F)c2)C1 [Example 478, 1-(3-(2,2-difluoroethoxy)-4-methyl-1-phenyl-1H-pyrazol-5-yl)-3-((3 S,4R)-4-(3,4-difluorophenyl)-1-(2-methoxyethyl)pyrrolidin-3-yl)urea]
< 100 nM | COCCN1C[C@@H](NC(=O)Nc2c(Cl)c(OCC(F)(F)F)nn2-c2ccccc2)[C@H](c2ccc(F)c(F)c2)C1 [Example 479, 1-(4-chloro-1-phenyl-3-(2,2,2-trifluoroethoxy)-1H-pyrazol-5-yl)-3-((3 S,4R)-4-(3,4-difluorophenyl)-1-(2-methoxyethyl)pyrrolidin-3-yl)urea]
